Test results from patent US10653138B2, “Composition for attracting bed bugs” (London School of Hygiene & Tropical Medicine, priority 2015, dated 2020).

Assays:
bed bugs [1] = experiment: Behavioural bioassay, refined synthetic blends (Example 9); format: in vivo, Cimex lectularius
Source text: The behavioural bioassay was as described by Weeks et al. 2011 and recorded using EthoVision and the methodology described by Weeks et al. 2013. Each replicate was completed as a block of 10 treatments including: • 1. Bed bug-exposed paper (positive control) • 2. Ether (negative control) • 3. Nonanal 80× • 4. E-2-octenal 800× • 5. Nonanal 80× and E-2-octenal 80× (80-80) • 6. Nonanal 80× and E-2-octenal 800× (80-800) • 7. Nonanal 80× and E-2-octenal 8000× (80-8000) • 8. Nonanal 8× and E-2-octenal 800× (8-800) • 9. Nonanal 8× and E-2-octenal 8000× (8-8000) • 10. Nonanal 80×, E-2-octenal 80× and 1-octen-3-ol 80× (80-80-80)
We are referring here to either 1×, 10×, 100× or 1000× the dose of Nonanal or (E)-2-octenal found naturally in the aggregation pheromone. For instance, an “8% solution” refers to an 8% dose of volatile extract (with the various different ratios of individual component).
Therefore, 8× means that it is 1 of standard volatiles, 8×=1× standard, 80×=10× standard and 800×=100× standard. 8000×=1000× standard.
In each block the order of the treatments and the position of the odour pot were randomized. 18 blocks were completed.

bed bugs [2] = conditions: volatile components of aggregation pheromone; cited from earlier work
bed bugs [3] = experiment: Behavioural bioassay, dose responses of individual chemicals (Example 8); format: in vivo, Cimex lectularius; conditions: for dose response: 0.008× to 8000×; for doses on which further synthetic blends should focus: × relative to 8% natural standard (8×=1× standard)
Method: Methods: The behavioural bioassay was as described by Weeks et al. 2011 and recorded using EthoVision and the methodology described by Weeks et al. 2013. For each chemical, (E)-2-octenal, (RS)-1-octen-3-ol and nonanal, seven doses were tested from 0.008× to 8000×, along with three controls. Each replicate was completed as a block of 10 treatments including: We are referring here to either 0.001×, 0.01×, 0.1×, 1×, 10×, 100× or 1000× the dose of (E)-2-octenal found naturally in the aggregation pheromone. For instance, an “8% solution” refers to an 8% dose of volatile extract (with the various different ratios of individual component). In each block the order of the treatments and the position of the odour pot were randomized. 10 blocks were completed for each chemical (n=10).

bed bug antennae = experiment: Coupled gas chromatography-electroantennography (GC-EAG) of volatile extract from bed bug-exposed paper; set-up: species or system Cimex lectularius; conditions: for Electrophysiology Auto method: bullet = marked under the Auto method; for Responses Total: males plus females, 20 insects tested; for Responses Females: number of females giving an EAG response to the peak; for Responses Females / Responses Males: volatile extract 1 μL; for Responses Males: number of males giving an EAG response to the peak; for electroantennogram (EAG) response: result in words; for Visual inspection (no of responses) >5 / Visual inspection (no of responses) >10 / Visual inspection (no of responses) >15: threshold of individuals responding; for Visual inspection (no of responses) Response: total EAG responses, Table 8
Source text: Experimental insects, unless otherwise stated, were mated males and females of C. lectularius that had been fed 7 to 14 days previously on heparinised sheep blood. The electrodes used to make recordings were Ag/AgCl wires (diameter 0.37 mm) inserted into glass pipettes, made from borosilicate glass capillaries (outer diameter 2.0 mm; inner diameter 1.16 mm). The glass pipettes were filled with Ringers solution (7.55 g NaCl, 0.64 g KCl, 0.22 g CaCl2, 1.73 g MgCl2 g, 0.86 g NaHCO3 and 0.61 g Na3PO4 L^−1 water). The bed bug was then chilled on ice for one minute before dissection. Preparations were held in a continuous, humidified, charcoal filtered air flow ([…]) coming from a glass tube, which was positioned 5 mm from the antennal preparation. Once the antennal preparation and EAG equipment were in position the microscope light was switched off.
The GC used was a HP-680N, containing a HP-1 column (30 m×0.32 mm; film thickness, 0.52 μm) with a COC injector, hydrogen carrier gas and a FID. The oven temperature was maintained at 40° C. for two min and then programmed at 5° C. min^−1 to 100° C. and then at 10° C. […] to 250° C. The end of the column was inserted into the centre of the main air flow so that the eluent went over the antennal preparation. […] Amplification of the signals was set at ×10,000. Signals were analysed using the computer-based software package, EAD 2000 (Syntech®, The Netherlands). The volatile extract (1 μL) from an air entrainment of bed bug-exposed papers (see Example 1) was injected onto the column. A solution of n-alkanes (C7-C25, 1 μL of 100 ng μL^−1) in hexane was also analysed to calculate the retention indices (RI) of any EAG-active peaks for comparison with GC and coupled GC-MS traces (Equation 1).
Electroantennographic (EAG) responses from the coupled gas chromatography-electroantennographic (GC-EAG) analysis of the volatile extract collected using air entrainment were determined by visual appearance. Coupled GC-EAG traces were examined visually on a light box to identify EAG responses and match them to peaks on the GC traces. A combination of characteristics including the amplitude and shape of the deflection from the baseline were used to identify EAG responses. For example, an EAG response is usually of greater amplitude than the background noise and it has a characteristic negative deflection followed by a quick positive deflection resulting in a short sharp response often of similar shape and position as the corresponding peak on the GC trace. Responses were matched between males and females separately onto master traces for each sex. The EAG-active peaks were labelled from 1 to 21. Male and female master traces were then overlaid to identify where consistent responses occurred in both sexes. Five or more individuals responding at the same retention time on the GC trace was considered to be a consistent EAG response and the corresponding peak on the GC trace was considered to be EAG-active. Three thresholds were used: greater than 5, greater than 10 or greater than 15 individuals responding to the same GC peak or at the same retention time. The traces were then subjected to manual or automated statistical analysis.

SMILES | time spent over the odour pot compared with blends (bed bugs [1]; (E)-2-octenal 800 treatment) | attraction of bed bugs to safe shelters (bed bugs [2]) | dose response (bed bugs [3]) | doses on which further synthetic blends should focus (bed bugs [3]) | Electrophysiology Auto method (bed bug antennae) | Responses Total (bed bug antennae) | Responses Females (bed bug antennae) | Responses Males (bed bug antennae) | electroantennogram (EAG) response (bed bug antennae) | Visual inspection (no of responses) >5 (bed bug antennae) | Visual inspection (no of responses) >10 (bed bug antennae) | Visual inspection (no of responses) >15 (bed bug antennae) | Visual inspection (no of responses) Response (bed bug antennae) | zone duration compared to zero (bed bugs [1]; nonanal 80)
CCCCC/C=C/C=O (single isomer, unassigned) [(E)-2-octenal] | significantly lower in time spent over the odour pot than 80-800 and 8-800 | attract bed bugs to safe shelters | clear dose response was observed | 800-8000 × | • | 16 | 8 | 8 | EAG-active | • (>5) | • (>10) | • (>15) | 16 | –
CCCCCCCCC=O [Nonanal, nonanal] | – | – | clear dose response was observed | 8-80 × | • | 17 | 9 | 8 | EAG-active | • (>5) | • (>10) | • (>15) | 17 | significantly greater in time spent above the odour pot in the odour zone
